Read-outs that look alike come from different tables or passages of the source.
Assays:
Assay type in all cases: biochemical
[1] = molecular target: LYN (Homo sapiens (Human), UniProt P07948); assay: LYN kinase assay (HTRF); conditions: [ATP]=20 μM, LYN=0.12 nM
Method: (§1) Btk Kinase Assay and Other Kinases Assay Btk kinase activity was determined using a homogenous time resolved fluorescence (HTRF) methodology. Measurements were performed in a reaction volume of 15 μL using 384-well assay plates. Kinase enzyme, inhibitor, ATP and 1 μM peptide substrate were incubated in a reaction buffer compose of Hepes 50 mM (pH7.0), NaN3 0.02%, BSA 0.01%, Orthocanadate 0.1 mM. After one hour, the kinase reaction was quenched by the addition of […] antibody and XL-665 in 1×Detection buffer containing 60 mM EDTA (Cisbio), and the mixture was allowed to incubate for one hour. The HTRF signal was measured on a multimode plate reader (EnVision® Multilabel Reader, Perkin Elmer) with an excitation wavelength (λEx) of 330 nm and detection wavelengths (λEm) of 615 and 665 nm. Activity was determined by the ratio of the fluorescence at 665 nm to that at 615 nm. For each compound, enzyme activity as measured at various concentrations of compound, Negative control reactions were performed in the absence of inhibitor in two replicates and eight no enzyme controls were used to determine baseline fluorescence levels. I[…] were obtained according to the equation: […] For LYN assay, [ATP]=20 μM, LYN=0.12 nM. For LCK assay, [ATP]=20 μM, LCK=0.2 nM. For BLK assay, [ATP]=20 μM, BLK=0.6 nM.

[2] = molecular target: EGFR (Homo sapiens (Human), UniProt P00533); assay: EGFR kinase assay
Method: Btk Kinase Assay and Other Kinases Assay Btk kinase activity was determined using a homogenous time resolved fluorescence (HTRF) methodology. Measurements were performed in a reaction volume of 15 μL using 384-well assay plates. Kinase enzyme, inhibitor, ATP and 1 μM peptide substrate were incubated in a reaction buffer compose of Hepes 50 mM (pH7.0), NaN3 0.02%, BSA 0.01%, Orthocanadate 0.1 mM. After one hour, the kinase reaction was quenched by the addition of […] antibody and XL-665 in 1×Detection buffer containing 60 mM EDTA (Cisbio), and the mixture was allowed to incubate for one hour. The HTRF signal was measured on a multimode plate reader (EnVision® Multilabel Reader, Perkin Elmer) with an excitation wavelength (λEx) of 330 nm and detection wavelengths (λEm) of 615 and 665 nm. Activity was determined by the ratio of the fluorescence at 665 nm to that at 615 nm. For each compound, enzyme activity as measured at various concentrations of compound, Negative control reactions were performed in the absence of inhibitor in two replicates and eight no enzyme controls were used to determine baseline fluorescence levels. I[…] were obtained according to the equation: […]

[3] = molecular target: BLK (Homo sapiens (Human), UniProt P51451); assay: BLK kinase assay (HTRF); conditions: [ATP]=20 μM, BLK=0.6 nM
Method: as §1

[4] = molecular target: BTK (Homo sapiens (Human), UniProt Q06187); assay: Btk kinase assay (HTRF); conditions: [ATP]=80 μM, BTK=3.4 nM
How it was run: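 HTRF read-out with enzyme, inhibitor, ATP and 1 μM peptide substrate in 50 mM Hepes pH 7.0, 0.02% NaN3, 0.01% BSA, 0.1 mM orthovanadate. Activity measured across compound concentrations against no-inhibitor controls, with no-enzyme wells as baseline.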

[5] = molecular target: LCK (Homo sapiens (Human), UniProt P06239); assay: LCK kinase assay (HTRF); conditions: [ATP]=20 μM, LCK=0.2 nM
Method: as §1

Chain of BTK (Q06187 whole entry, species assumed): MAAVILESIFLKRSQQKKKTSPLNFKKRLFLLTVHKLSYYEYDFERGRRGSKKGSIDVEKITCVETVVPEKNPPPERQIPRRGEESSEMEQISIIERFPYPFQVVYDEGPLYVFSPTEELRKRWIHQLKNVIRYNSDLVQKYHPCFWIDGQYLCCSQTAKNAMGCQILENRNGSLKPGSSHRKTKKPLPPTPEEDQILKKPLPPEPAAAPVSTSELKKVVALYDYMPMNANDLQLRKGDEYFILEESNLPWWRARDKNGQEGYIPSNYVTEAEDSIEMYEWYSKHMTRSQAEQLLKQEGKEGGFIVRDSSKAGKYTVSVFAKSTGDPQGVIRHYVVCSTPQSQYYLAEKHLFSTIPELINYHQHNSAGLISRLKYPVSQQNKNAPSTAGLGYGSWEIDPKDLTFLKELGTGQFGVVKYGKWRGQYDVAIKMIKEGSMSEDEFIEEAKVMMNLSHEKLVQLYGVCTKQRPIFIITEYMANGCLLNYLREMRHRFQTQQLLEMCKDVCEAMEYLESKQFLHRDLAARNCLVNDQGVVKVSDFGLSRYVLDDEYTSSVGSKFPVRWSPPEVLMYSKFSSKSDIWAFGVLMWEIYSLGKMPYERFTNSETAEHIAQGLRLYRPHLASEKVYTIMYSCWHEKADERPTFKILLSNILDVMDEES
Chain of LCK (P06239 whole entry, species assumed): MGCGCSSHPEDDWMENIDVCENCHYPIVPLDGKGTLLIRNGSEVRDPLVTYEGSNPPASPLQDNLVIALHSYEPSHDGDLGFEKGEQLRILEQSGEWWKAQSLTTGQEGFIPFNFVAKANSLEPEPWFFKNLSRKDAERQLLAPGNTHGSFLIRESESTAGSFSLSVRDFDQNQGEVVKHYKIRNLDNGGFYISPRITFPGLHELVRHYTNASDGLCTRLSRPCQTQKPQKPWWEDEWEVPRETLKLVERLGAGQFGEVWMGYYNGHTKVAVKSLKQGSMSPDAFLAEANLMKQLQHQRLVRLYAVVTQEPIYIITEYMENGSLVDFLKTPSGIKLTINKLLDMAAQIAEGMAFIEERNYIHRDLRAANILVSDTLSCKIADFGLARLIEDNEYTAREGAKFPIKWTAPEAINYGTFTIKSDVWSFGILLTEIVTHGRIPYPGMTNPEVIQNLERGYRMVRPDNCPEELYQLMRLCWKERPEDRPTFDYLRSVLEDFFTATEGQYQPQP
Chain of BLK (P51451 whole entry, species assumed): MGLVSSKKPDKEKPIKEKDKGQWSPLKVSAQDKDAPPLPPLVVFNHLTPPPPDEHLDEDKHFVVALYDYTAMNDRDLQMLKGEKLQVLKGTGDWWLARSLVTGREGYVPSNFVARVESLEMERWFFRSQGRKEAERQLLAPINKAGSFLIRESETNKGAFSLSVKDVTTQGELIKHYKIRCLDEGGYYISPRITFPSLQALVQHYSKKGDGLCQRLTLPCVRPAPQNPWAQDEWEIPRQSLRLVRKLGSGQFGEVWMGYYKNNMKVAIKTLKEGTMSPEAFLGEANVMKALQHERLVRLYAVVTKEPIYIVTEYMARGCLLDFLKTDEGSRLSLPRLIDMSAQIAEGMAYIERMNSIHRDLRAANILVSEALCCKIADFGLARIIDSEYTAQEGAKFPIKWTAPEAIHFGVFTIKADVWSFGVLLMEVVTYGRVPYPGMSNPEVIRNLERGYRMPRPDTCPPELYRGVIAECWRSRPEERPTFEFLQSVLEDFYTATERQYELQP
Chain of EGFR (P00533 25-1210, species assumed): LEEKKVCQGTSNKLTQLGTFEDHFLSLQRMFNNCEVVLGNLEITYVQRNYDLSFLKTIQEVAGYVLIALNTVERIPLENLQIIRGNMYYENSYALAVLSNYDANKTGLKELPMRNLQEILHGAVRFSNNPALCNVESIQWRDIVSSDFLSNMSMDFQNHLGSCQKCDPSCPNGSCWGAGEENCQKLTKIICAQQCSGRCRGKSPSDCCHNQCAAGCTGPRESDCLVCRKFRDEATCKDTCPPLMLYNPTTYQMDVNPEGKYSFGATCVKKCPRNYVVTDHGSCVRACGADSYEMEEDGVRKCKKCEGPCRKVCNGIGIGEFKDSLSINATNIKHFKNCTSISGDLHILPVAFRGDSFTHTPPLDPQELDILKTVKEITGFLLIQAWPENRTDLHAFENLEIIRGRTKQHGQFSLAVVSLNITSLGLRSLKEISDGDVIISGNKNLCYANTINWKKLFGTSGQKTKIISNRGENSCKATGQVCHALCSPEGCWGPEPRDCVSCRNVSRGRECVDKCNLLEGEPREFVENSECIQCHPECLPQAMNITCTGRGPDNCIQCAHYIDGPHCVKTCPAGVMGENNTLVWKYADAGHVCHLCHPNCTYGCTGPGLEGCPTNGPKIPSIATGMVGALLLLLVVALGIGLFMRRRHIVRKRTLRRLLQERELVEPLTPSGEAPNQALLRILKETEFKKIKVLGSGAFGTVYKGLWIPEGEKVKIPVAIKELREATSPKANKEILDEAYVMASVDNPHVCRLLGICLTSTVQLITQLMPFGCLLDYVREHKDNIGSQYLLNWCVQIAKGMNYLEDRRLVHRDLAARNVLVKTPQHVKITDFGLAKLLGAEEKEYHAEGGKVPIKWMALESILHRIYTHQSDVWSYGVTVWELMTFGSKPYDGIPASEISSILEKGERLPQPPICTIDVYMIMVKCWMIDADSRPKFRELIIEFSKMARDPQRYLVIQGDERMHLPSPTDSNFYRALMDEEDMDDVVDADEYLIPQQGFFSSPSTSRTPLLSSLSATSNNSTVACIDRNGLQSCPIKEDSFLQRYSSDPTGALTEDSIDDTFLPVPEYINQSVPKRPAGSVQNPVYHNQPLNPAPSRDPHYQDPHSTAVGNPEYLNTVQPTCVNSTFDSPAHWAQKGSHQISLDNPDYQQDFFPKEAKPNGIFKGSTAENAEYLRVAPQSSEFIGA
Chain of LYN (P07948 whole entry, species assumed): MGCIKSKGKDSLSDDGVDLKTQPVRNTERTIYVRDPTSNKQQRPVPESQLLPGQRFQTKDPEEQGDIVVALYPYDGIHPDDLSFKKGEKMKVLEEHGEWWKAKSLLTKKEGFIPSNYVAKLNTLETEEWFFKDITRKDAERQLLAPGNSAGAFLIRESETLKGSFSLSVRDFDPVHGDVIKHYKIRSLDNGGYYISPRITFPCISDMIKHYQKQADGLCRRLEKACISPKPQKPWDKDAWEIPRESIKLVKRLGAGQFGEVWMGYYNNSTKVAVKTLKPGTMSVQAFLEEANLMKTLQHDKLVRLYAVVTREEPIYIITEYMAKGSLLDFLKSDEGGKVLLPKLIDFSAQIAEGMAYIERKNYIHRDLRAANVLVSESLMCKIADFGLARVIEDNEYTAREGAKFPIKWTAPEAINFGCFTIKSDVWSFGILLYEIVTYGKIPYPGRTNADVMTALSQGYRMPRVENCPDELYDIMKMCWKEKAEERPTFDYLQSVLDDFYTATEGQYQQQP

SMILES	IC50 [1]	IC50 [2]	IC50 [3]	IC50 ([4]; read-out: BTK IC50)	IC50 ([4]; read-out: BTK Inhibition)	IC50 [5]
C=CC(=O)N1CCC[C@@H](n2nc(-c3ccc(Oc4cccc(OC)c4F)cc3)c3cncc(OC)c32)C1 [Compound 6, (R)-1-(3-(3-(4-(2-fluoro-3-methoxyphenoxy)phenyl)-7-methoxy-1H-pyrazolo[4,3-c]pyridin-1-yl)piperidin-1-yl)prop-2-en-1-one]	1000 to 10000 nM	100 to 1000 nM	10 to 100 nM	< 10 nM	< 10 nM	1000 to 10000 nM
C=CC(=O)N1CC[C@@H](n2nc(-c3ccc(Oc4ccccc4)cc3)c3cnccc32)C1 [Compound 1, (R)-1-(3-(3-(4-phenoxyphenyl)-1H-pyrazolo[4,3-c]pyridin-1-yl)pyrrolidin-1-yl)prop-2-en-1-one]	≤ 10000 nM	100 to 1000 nM	< 10 nM	< 10 nM	< 10 nM	1000 to 10000 nM

— US10662187B2, “Bruton's tyrosine kinase inhibitors” (Zibo Biopolar Changsheng Pharmaceutical Co. Ltd., priority 2016, dated 2020)
